{"source": "patent US20240024379A1", "about": "“EXTRACT OF BACTERIA OF THE GENUS SPHINGOMONAS” (L’OREAL, priority 2020, published 2024)", "assay_type_in_all_cases": "cell-based", "key": {"[1]": {"target": "T1, hTLR2 (Homo sapiens, UniProt O60603)", "T1 construct": "host or cells: HEK-293", "T1 sequence (O60603 21-784)": "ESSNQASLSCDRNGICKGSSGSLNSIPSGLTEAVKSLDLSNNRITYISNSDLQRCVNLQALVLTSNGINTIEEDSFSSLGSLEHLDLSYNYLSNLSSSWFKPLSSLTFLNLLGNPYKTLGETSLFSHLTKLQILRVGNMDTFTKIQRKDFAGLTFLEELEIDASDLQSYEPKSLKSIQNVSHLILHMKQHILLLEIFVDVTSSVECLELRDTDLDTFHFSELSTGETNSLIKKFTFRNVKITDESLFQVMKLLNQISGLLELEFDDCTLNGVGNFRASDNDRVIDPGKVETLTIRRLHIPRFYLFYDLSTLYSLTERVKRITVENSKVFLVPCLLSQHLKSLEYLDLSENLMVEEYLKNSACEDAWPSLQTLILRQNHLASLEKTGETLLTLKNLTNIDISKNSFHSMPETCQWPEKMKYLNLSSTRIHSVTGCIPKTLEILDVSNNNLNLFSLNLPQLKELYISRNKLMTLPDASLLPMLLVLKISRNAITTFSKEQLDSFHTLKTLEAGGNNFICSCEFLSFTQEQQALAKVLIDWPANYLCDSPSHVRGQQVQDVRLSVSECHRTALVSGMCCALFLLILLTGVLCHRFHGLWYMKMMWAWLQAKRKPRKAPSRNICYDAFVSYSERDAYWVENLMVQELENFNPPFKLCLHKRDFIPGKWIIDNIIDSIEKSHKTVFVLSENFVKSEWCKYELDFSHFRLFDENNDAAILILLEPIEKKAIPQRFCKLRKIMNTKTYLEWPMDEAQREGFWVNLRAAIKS", "assay": "TLR reporter (SEAP/NFkB) test on HEK293 cell line with hTLR2", "experimental": "(§1) The extract and the controls are tested in duplicate on recombinant HEK-293 cell lines. These cell lines functionally over-express human TLR proteins as well as a reporter gene that is a secreted alkaline phosphatase (SEAP). The production of this reporter gene is governed by an NFkB inducible promoter. The results of activation of the TLR reporters are given in the form of optical density (OD) values.\n(§2) CU-T12-9 and FSL-1 are used on the cells expressing hTLR2 to respectively assess the TLR1/TLR2 and TLR2/TLR6 activities.\n(§3) […] CU-T12-9 is tested at 200 nM and 300 nM.\n(§4) 20 μl of the extract have been used to stimulate the reporter hTLR cell line in 200 μl of reaction volume. For the dose-response on the HEK-Blue-hTLR5 cell lines, the liquid extract obtained according to Example 1 has been tested in duplicate, at the following concentrations: 1000 μg/ml, 500 μg/ml, 250 μg/ml, 125 μg/ml, 62.5 μg/ml, 31.5 μg/ml. For the TLR1/2 and/or TLR2/6 specificity, the liquid extract obtained according to Example 1 has been tested in duplicate at the following concentrations: 100 μg/ml, 30 μg/ml and 10 μg/ml."}, "[2]": {"target": "T2, hTLR2-1 (Homo sapiens, UniProt O60603+Q15399)", "T2 construct": "host or cells: HEK-293", "T2 sequence (O60603 21-784)": "as above", "T2 sequence (Q15399 25-786)": "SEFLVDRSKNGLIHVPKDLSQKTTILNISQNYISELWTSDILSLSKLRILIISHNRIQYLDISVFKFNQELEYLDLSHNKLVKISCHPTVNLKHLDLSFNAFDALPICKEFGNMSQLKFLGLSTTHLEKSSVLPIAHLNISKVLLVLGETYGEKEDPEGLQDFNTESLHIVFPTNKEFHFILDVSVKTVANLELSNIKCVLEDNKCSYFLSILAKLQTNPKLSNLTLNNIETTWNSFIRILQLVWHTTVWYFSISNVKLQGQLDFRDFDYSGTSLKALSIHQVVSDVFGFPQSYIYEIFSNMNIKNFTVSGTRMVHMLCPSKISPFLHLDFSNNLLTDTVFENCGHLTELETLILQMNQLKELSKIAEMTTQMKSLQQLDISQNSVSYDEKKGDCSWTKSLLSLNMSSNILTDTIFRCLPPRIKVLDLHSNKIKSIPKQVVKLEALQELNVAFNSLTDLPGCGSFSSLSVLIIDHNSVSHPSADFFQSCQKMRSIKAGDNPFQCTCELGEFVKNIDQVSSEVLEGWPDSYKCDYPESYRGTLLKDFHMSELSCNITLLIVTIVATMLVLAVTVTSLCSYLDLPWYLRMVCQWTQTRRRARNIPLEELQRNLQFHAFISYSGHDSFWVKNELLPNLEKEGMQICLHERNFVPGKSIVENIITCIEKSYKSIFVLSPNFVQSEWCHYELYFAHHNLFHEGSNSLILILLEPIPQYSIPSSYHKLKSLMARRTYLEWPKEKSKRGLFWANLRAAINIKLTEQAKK", "assay": "TLR reporter (SEAP/NFkB) test on HEK293 cell line with hTLR2-1", "experimental": "as §1, §2, §3\n20 μl of the extract have been used to stimulate the reporter hTLR cell line in 200 μl of reaction volume. For the dose-response on the HEK-Blue-hTLR5 cell lines, the liquid extract obtained according to Example 1 has been tested in duplicate, at the following concentrations: 1000 μg/ml, 500 μg/ml, 250 μg/ml, 125 μg/ml, 62.5 μg/ml, 31.5 μg/ml. […]"}, "[3]": {"target": "T3, hTLR2-6 (Homo sapiens, UniProt O60603+Q9Y2C9)", "T3 construct": "host or cells: HEK-293", "T3 sequence (O60603 21-784)": "as the sequence (O60603 21-784) above", "T3 sequence (Q9Y2C9 32-796)": "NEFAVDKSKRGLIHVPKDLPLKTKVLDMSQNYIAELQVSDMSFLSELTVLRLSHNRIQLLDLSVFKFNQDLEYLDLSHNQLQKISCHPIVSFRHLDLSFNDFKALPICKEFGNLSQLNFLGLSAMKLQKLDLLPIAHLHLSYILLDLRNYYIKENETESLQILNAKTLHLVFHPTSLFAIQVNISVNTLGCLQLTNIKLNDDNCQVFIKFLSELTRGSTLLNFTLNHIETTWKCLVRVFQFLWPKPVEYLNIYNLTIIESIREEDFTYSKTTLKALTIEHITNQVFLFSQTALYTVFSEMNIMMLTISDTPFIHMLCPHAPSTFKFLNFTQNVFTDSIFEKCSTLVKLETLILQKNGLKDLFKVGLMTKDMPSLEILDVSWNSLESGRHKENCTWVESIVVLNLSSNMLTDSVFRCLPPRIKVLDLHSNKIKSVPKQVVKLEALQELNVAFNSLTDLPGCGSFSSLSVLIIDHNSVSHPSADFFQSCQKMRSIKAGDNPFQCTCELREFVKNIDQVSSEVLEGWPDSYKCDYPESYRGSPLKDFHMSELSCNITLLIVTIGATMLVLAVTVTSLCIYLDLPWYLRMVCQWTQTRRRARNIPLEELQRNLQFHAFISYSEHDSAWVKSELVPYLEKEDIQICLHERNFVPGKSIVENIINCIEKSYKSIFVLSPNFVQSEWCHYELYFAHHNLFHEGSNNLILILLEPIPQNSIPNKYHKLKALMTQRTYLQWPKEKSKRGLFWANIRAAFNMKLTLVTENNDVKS", "assay": "TLR reporter (SEAP/NFkB) test on HEK293 cell line with hTLR2-6", "experimental": "as §1, §2, §3, §4"}, "[4]": {"system": "IgE production by human B lymphocytes", "assay": "IgE production by human B lymphocytes stimulated with anti-CD40 and IL-4, ELISA", "conditions": "Anti CD-40 10 μg/ml + IL-4 10 ng/ml, 14 days; for IgE: single replicates", "experimental": "In the study, the effect of the extract has been assessed on the IgE production by purified human B lymphocytes (isolation of the CD19^+ lymphocytes from mononuclear cells of the peripheral blood). More specifically, the IgE production has been induced by the stimulation of the B lymphocytes with the combination of anti-CD40 antibody and of IL-4. After 14 days of incubation, the amount of IgE released in the culture supernatants has been quantified using a specific ELISA kit. Concomitantly with the tested extract, 3 other molecules have also been assessed in this test. the reference standard CpG-ODN 2006 (a TLR9 ligand), as well as IFN-γ and PGE2 have been tested as reference compounds.\nThe B lymphocytes CD19^+ have been isolated, sown in 24-well plates and incubated over one night in the culture medium. Afterwards, the compounds to be tested, tested alone or in combination, and the reference compounds have been added, or not (controls), and the cells have been pre-incubated for 2 hours. Afterwards, the inducer (a CD40+IL-4 combination) has been added, or not (unstimulated control) and the treatments with the test or the reference compounds have been repeated. Afterwards, the cells have been incubated for 14 days at a final density of 1.7×10^6 cells/ml). […]\nThe amount of IgE released in the culture supernatants has been measured using a specific ELISA kit according to the instructions of the supplier."}, "[5]": {"system": "Claudin 1", "assay": "Gene expression by RT-qPCR in normal human epidermal keratinocytes, Claudin 1", "conditions": "NHEK, 24 hours; 1.00E−07 M, DMSO", "experimental": "(§5) Normal human epidermal keratinocytes (NHEK) have been sown in 48-well culture plates and then cultured in a culture medium for 3 days at 37° C. and 5% of CO2 with a renewal of the culture medium after first 24 hours of culture. At the end of the incubation, the culture medium has been replaced with a test medium (supplemented with 1.5 mM of CaCl2)) containing no (control) or containing the compounds to be tested, and the cells has then been incubated for 24 hours. All conditions have been carried out in duplicate. At the end of the treatments, the culture media have been eliminated and the cells have been rinsed twice with PBS (without CaCl2, without MgCl2). Afterwards, the total RNA has been isolated using an extraction kit. The quantification of RNA and its quality control have been analyzed by means of Labchip GX (Perkin Elmer). The expression of the selected transcripts has been analyzed by quantitative PCR in two steps. First of all, the cDNAs have been transcribed in the opposite direction from the RNAs. Afterwards, the quantitative PCR experiments have been carried out using a real-time PCR system. […] The RNAs are extracted, quantified and their quality is checked before performing their reverse transcription into cDNA. Finally, an RT-qPCR is carried out for each experimental condition in order to quantify the expression of the set of selected genes."}, "[6]": {"system": "Cornifelin", "assay": "Gene expression by RT-qPCR in normal human epidermal keratinocytes, Cornifelin", "conditions": "NHEK, 24 hours; 1.00E−07 M, DMSO", "experimental": "as §5"}, "[7]": {"system": "Zonula Occludens-1", "assay": "Gene expression by RT-qPCR in normal human epidermal keratinocytes, Zonula Occludens-1", "conditions": "NHEK, 24 hours; 1.00E−07 M, DMSO", "experimental": "as §5"}}, "note": "“And” between values parts separate entries of the source, which are not always exact repeats. Equal entries are not always repeated."}
{"compound": "CNc1ccc([N+](=O)[O-])cc1-n1cnc(-c2ccc(C(F)(F)F)cc2)c1", "note": "[CUT12-9]", "values": [{"measurement": "DO", "setting": "[1]; 200 nM", "value": 3.066}, {"measurement": "DO", "setting": "[1]; 300 nM", "value": 3.227}, {"measurement": "DO", "setting": "[2]; 200 nM", "value": 1.474}, {"measurement": "DO", "setting": "[2]; 300 nM", "value": 1.667}, {"measurement": "DO", "setting": "[3]; 200 nM", "value": 0.029}, {"measurement": "DO", "setting": "[3]; 300 nM", "value": 0.024}]}
{"compound": "CCCCC[C@H](O)/C=C/[C@H]1[C@H](O)CC(=O)[C@@H]1C/C=C\\CCCC(=O)O", "note": "[PGE2]", "values": [{"measurement": "IgE % of the stimulated control", "setting": "[4]; 1 μM", "value": 58, "unit": "%"}, {"measurement": "IgE Mean", "setting": "[4]; 1 μM", "value": 2126, "unit": "pg/mL"}, {"measurement": "IgE", "setting": "[4]; 1 μM", "value": "2942 pg/mL and 1495 pg/mL and 1941 pg/mL"}]}
{"compound": "CC1=C(/C=C/C(C)=C/C=C/C(C)=C/CO)C(C)(C)CCC1", "note": "[Retinol]", "values": [{"measurement": "Average expression of the genes, Claudin 1", "setting": "[5]", "value": 0.63}, {"measurement": "Average expression of the genes, Cornifelin", "setting": "[6]", "value": 0.77}, {"measurement": "Average expression of the genes, Zonula Occludens-1", "setting": "[7]", "value": 1.61}]}
{"compound": "CpG-ODN 2006", "values": [{"measurement": "IgE % of the stimulated control", "setting": "[4]; 3 μM", "value": "<3", "unit": "%"}, {"measurement": "IgE Mean", "setting": "[4]; 3 μM", "value": "<123", "unit": "pg/mL"}, {"measurement": "IgE % of the stimulated control", "setting": "[4]; 3 μM, listed as CpG-ODN2006", "value": "< 3", "unit": "%"}, {"measurement": "IgE", "setting": "[4]; 3 μM", "value": "<123", "unit": "pg/mL"}]}
{"compound": "FSL1", "values": [{"measurement": "DO", "setting": "[1]; 10 pg/ml", "value": 1.727}, {"measurement": "DO", "setting": "[1]; 30 pg/ml", "value": 2.174}, {"measurement": "DO", "setting": "[2]; 10 pg/ml", "value": 0.027}, {"measurement": "DO", "setting": "[2]; 30 pg/ml", "value": 0.013}, {"measurement": "DO", "setting": "[3]; 10 pg/ml", "value": 1.373}, {"measurement": "DO", "setting": "[3]; 30 pg/ml", "value": 2.047}]}
{"compound": "IFN-γ: reference compound, R&D Systems, ref. 285-IF-100/CF", "values": [{"measurement": "IgE % of the stimulated control", "setting": "[4]; 10 ng/ml", "value": 20, "unit": "%"}, {"measurement": "IgE Mean", "setting": "[4]; 10 ng/ml", "value": 738, "unit": "pg/mL"}, {"measurement": "IgE", "setting": "[4]; 10 ng/ml", "value": "1012 pg/mL and 166 pg/mL and 1036 pg/mL"}]}
